Test results from patent US20070110818A1, “Milk fractions and milk preparations for treating and/or preventing cox-2 mediated diseases” (priority 2003, published 2007).

Target: T1, COX-2 (Homo sapiens, UniProt P35354)
T1 construct: treated with 100 nM (nmol/l) phorbol 12-myristate 13-acetate for 6 h at 37° C. to induce COX-2 isoenzyme; endogenous in cells; host or cells: HUV-EC-C (ATCC CRL1730), PMA-induced
T1 sequence (P35354 18-604): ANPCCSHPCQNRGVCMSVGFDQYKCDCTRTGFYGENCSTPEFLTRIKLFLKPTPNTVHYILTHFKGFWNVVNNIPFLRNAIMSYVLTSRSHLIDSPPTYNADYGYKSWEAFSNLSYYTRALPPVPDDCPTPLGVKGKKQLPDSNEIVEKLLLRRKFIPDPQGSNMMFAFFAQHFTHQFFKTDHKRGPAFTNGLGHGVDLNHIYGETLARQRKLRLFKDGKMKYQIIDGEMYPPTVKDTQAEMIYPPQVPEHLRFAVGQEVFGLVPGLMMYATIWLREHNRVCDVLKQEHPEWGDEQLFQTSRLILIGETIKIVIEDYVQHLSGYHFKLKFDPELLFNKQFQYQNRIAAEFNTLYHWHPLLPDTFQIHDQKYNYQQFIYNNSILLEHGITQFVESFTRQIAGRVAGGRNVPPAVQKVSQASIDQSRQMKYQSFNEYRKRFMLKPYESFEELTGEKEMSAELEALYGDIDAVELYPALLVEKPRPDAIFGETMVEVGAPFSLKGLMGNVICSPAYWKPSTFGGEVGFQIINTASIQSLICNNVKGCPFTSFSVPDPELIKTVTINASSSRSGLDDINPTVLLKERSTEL
Test: COX-2 screening in PMA-induced HUV-EC-C cells (Prostaglandine-E2 production by RIA)
Format: cell-based
Method: HUV-EC-C cells (a permanent endothelial cell line derived from the vein of a normal human umbilical cord; ATCC CRL1730; M. Miralpeix, M. Camacho et al., Brit. J. Pharmacol. 121 (1997), 171-180), were seeded onto 96-well plates (RPMI 1640+10% FCS) and treated with 100 nM (nmol/l) phorbol 12-myristate 13-acetate for 6 h at 37° C. to induce COX-2 isoenzyme. 50 μM (μmol/l) arachidonic acid were then added and the cells were incubated in the presence of test compounds or mixtures for 30 min at 37° C. Prostaglandine-E2 production was measured by radioimmuno assay (RIA) and the radioactivity determined with a scintillation counter (Topcount, Packard) using a liquid scintillation cocktail (Packard).
The results obtained are expressed as a percent of control values and as a percent inhibition of control values obtained in the presence of the test compounds. The control values correspond to the COX-2 activity of HUV-EC-C cells after stimulation with Phorbol Myristate Acetate (PMA) during 6 hours at 37° C. (can be done also with Tumor Necrosis Factor type alpha: TNFα) in absence of test compound.
The concentration causing a half-maximal inhibition of control values (IC50 value) and Hill coefficients (nH) were determined for the reference compounds (cycloheximide) by nonlinear regression analysis of their inhibition curves. These parameters were obtained by Hill equation curve fitting. […]

In the case of `N[C@@H](CS)C(=O)O` [Cysteine], the “cyclooxygenase-2 inhibiting activity (in words)” value is reported as “no effect”.
